IC50 data for 21 compounds are collected here from patent US20240400560A1, “BICYCLIC HETEROCYCLIC DERIVATIVE HAVING VIRAL GROWTH INHIBITORY ACTIVITY AND PHARMACEUTICAL COMPOSITION CONTAINING SAME” (Shionogi & Co., Ltd., priority 2021, published 2024).

Some results are limits rather than exact numbers.

This experiment concerns the target SARS-CoV-2 3CL protease (Severe acute respiratory syndrome coronavirus 2, UniProt P0DTD1). Kind of experiment: Inhibitory activity test against SARS-CoV-2 3CL proteases. Type of experiment: biochemical. Conditions: read-out: IC50 (50% SARS-CoV-2 3CL protease inhibitory concentration).
As for `CNC(=O)c1ccc(Cl)c(-c2cc(OC)c3c(=O)n(-c4cncc(C)c4)c(=O)n(Cc4ccc(F)c(C#N)c4)c3c2)c1` [Compound I-0192], the IC50 is less than 100 nM.

Consider `COc1cc(-c2cc(C(=O)NCCCO)ccc2Cl)cc2c1c(=O)n(-c1cncc(C)c1)c(=O)n2Cc1ccc(F)c(C#N)c1` [Compound I-0193], for which the IC50 was 9 nM.

Consider `COc1cc(-c2cc(C(=O)NCCOCCO)ccc2Cl)cc2c1c(=O)n(-c1cncc(C)c1)c(=O)n2Cc1ccc(F)c(C#N)c1` [Compound I-0196], for which the IC50 came out at 11 nM.

Take `COc1cc(-c2cc(CC(=O)NC3CCN(C)CC3)ccc2Cl)cc2c1c(=O)n(-c1cncc(Cl)c1)c(=O)n2Cc1cc(F)c(F)c(F)c1` [Compound I-0197]: the IC50 is less than 100 nM.

For the compound `COc1cc(-c2cc(CC(=O)O)ccc2Cl)cc2c1c(=O)n(-c1cncc(Cl)c1)c(=O)n2Cc1cc(Cl)ccc1C` [Compound I-0198], the IC50 is less than 100 nM.

Take `CN=S(C)(=O)c1ccc(Cl)c(-c2cc(OC)c3c(=O)n(-c4cncc(Cl)c4)c(=O)n(Cc4cc(F)c(F)c(F)c4)c3c2)c1` (stereo not drawn) [Compound I-0199]: the IC50 was found to be 16 nM.

Regarding `COc1cc(-c2cc(CC(=O)NC3CCN(C)CC3)ccc2Cl)cc2c1c(=O)n(-c1cncc(Cl)c1)c(=O)n2Cc1ccc(F)c(C#N)c1` [Compound I-0201], the IC50 was less than 100 nM.

In the case of `COc1cc(-c2cc(CC(=O)NCCS(C)(=O)=O)ccc2Cl)cc2c1c(=O)n(-c1cncc(Cl)c1)c(=O)n2Cc1cc(F)c(F)c(F)c1` [Compound I-0202], the IC50 worked out at 20 nM.

`COc1cc(-c2cc(CC(=O)NCCN(C)C)ccc2Cl)cc2c1c(=O)n(-c1cncc(Cl)c1)c(=O)n2Cc1ccc(F)c(C#N)c1` [Compound I-0203]: the IC50 was less than 100 nM.

Turning to `COc1cc(-c2cc(CC(=O)NCCN(C)C)ccc2Cl)cc2c1c(=O)n(-c1cncc(Cl)c1)c(=O)n2Cc1cc(F)c(F)c(F)c1` [Compound I-0204], the IC50 is less than 100 nM.

For `COc1cc(-c2cc(CC(=O)N(C)C)ccc2Cl)cc2c1c(=O)n(-c1cncc(Cl)c1)c(=O)n2Cc1cc(Cl)ccc1C` [Compound I-0205], the IC50 was less than 100 nM.

On to `COc1cc(-c2cc(CC(N)=O)ccc2Cl)cc2c1c(=O)n(-c1cncc(Cl)c1)c(=O)n2Cc1cc(F)c(F)c(F)c1` [Compound I-0206], for which the IC50 is less than 100 nM.

Take `COc1cc(-c2cc(S(C)(=N)=O)ccc2Cl)cc2c1c(=O)n(Cc1ncn(C)n1)c(=O)n2Cc1cc(F)c(F)c(F)c1` (stereo not drawn) [Compound I-0207]: the IC50 turned out to be 23 nM.

Consider `COc1cc(-c2cc(C(=O)N3CCOCC3)ccc2Cl)cc2c1c(=O)n(-c1cncc(C)c1)c(=O)n2Cc1ccc(F)c(C#N)c1` [Compound I-0209], for which the IC50 is less than 100 nM.

For `COc1cc(-c2cc(N=S(C)(C)=O)ccc2Cl)cc2c1c(=O)n(-c1cncc(Cl)c1)c(=O)n2Cc1cc(F)c(F)c(F)c1` [Compound I-0210], the IC50 was found to be 28 nM.

Turning to `COc1cc(-c2cc(CC(=O)N3CC[C@H](N)C3)ccc2Cl)cc2c1c(=O)n(-c1cncc(Cl)c1)c(=O)n2Cc1cc(F)c(F)c(F)c1` [Compound I-0211], the IC50 is less than 100 nM.

On to `COc1cc(-c2cc(C(=O)NCCN(C)C)ccc2Cl)cc2c1c(=O)n(Cc1ncn(C)n1)c(=O)n2Cc1cc(F)c(F)c(F)c1` [Compound I-0212], for which the IC50 was less than 100 nM.

As to `CNC(=O)c1ccc(Cl)c(-c2cc(OC)c3c(=O)n(Cc4ncn(C)n4)c(=O)n(Cc4cc(F)c(F)c(F)c4)c3c2)c1` [Compound I-0213], the IC50 was determined as 33 nM.

For the compound `COc1cc(-c2cc(C(=O)NCCO)ccc2Cl)cc2c1c(=O)n(Cc1ncn(C)n1)c(=O)n2Cc1cc(F)c(F)c(F)c1` [Compound I-0214], the IC50 was less than 100 nM.

With `COc1cc(-c2cc(C(=O)NCCNCCO)ccc2Cl)cc2c1c(=O)n(Cc1ncn(C)n1)c(=O)n2Cc1cc(F)c(F)c(F)c1` [Compound I-0216], the IC50 is less than 100 nM.

Consider `COc1cc(-c2cc(C(=O)NCCN3CCOCC3)ccc2Cl)cc2c1c(=O)n(Cc1ncn(C)n1)c(=O)n2Cc1cc(F)c(F)c(F)c1` [Compound I-0217], for which the IC50 is less than 100 nM.
